Source: US10442805B2, “Polymorphic forms of a hydrochloride salt of (S)-2-(1-(9H-purin-6-ylamino)propyl)-5-fluoro-3-phenylquinazolin-4(3H)-one” (GILEAD CALISTOGA LLC, priority 2013, dated 2019)
Each block holds one compound with its values, some of them ahead of it.

Tests used:
Format in all cases: physicochemical
[1] = Form screen on the HCl salt: solid form by XRPD after suspension in solvent
Method: XRPD patterns were collected at room temperature, using a PANalytical X'Pert MPD Pro Powder X-Ray Diffractometer configured with reflectance stage with spinning, data acquisition range: 2-40 degrees 2θ, Copper (Cu) anode; Kα1/Kα2 radiation; tube current 40 mA; tube tension 45 kV; automatic divergence and anti-scatter slits. Samples were prepared for analysis by distributing solid material as a thin layer on a silicon holder. Each holder was mounted on a reflectance/transmittance stage and rotated during data acquisition. […] After 7 days, a sample of the suspension was removed from the vial/flask, and the sample was centrifuged and filtered to separate the solids from the liquid in the sample. The isolated solids were characterized by XRPD (collected at room temperature). The filtrate was retained. After about 25 days, another sample was removed from the vial/flask, and the sample was centrifuged and filtered to separate the solids from the liquid in the sample. The isolated solids were characterized by XRPD (collected at room temperature).

[2] = Hydrate screen on the HCl salt: solubility in ethanol/water; conditions: ethanol/water mixture, aqueous with cosolvent or surfactant or cyclodextrin, thermodynamic from solid; for solubility at 5 days: solubility column beside XRPD after 5 days
Source text: (§1) Polymorphic Form I of a hydrochloride salt of (S)-2-(1-(9H-purin-6-ylamino)propyl)-5-fluoro-3-phenylquinazolin-4(3H)-one, i.e., Compound of Formula (I), prepared according to the protocols described in Example 1 above was mixed with ethanol and water. XRPDs were taken on Days 5 and 21.

[3] = Dynamic vapour sorption (DVS); conditions: 25° C.
[4] = Hydrate screen on the HCl salt: solid form by XRPD in ethanol/water (effect of water on stability of Form I); conditions: for changes in XRPD in the hydrate screen: water/ethanol system
Method: XRPD patterns were collected at room temperature, using a PANalytical X'Pert MPD Pro Powder X-Ray Diffractometer configured with reflectance stage with spinning, data acquisition range: 2-40 degrees 2θ, Copper (Cu) anode; Kα1/Kα2 radiation; tube current 40 mA; tube tension 45 kV; automatic divergence and anti-scatter slits. Samples were prepared for analysis by distributing solid material as a thin layer on a silicon holder. Each holder was mounted on a reflectance/transmittance stage and rotated during data acquisition.
as §1

[5] = XRPD of solvate forms after drying or heating
Method: For Pattern 1, shown in FIGS. 14A and 15B, 50 mg of the hydrochloride salt of the Compound Formula (I) was suspended in propyl acetate (3.5 mL, 70 vol) and held at 50° C. for 15 minutes, after which 1.1 eq of 12M HCl (11.6 μL) was added and the sample slowly cooled from 50° C. to 5° C. at 0.1° C. per minute. The XRPD pattern shown in FIG. 14A was observed while the sample was wet. […] FIG. 14C depicts the XRPD pattern after further heating at about 145° C. for about 16 hours (Pattern 9′).
For the toluene solvate, shown in FIG. 20 (wet), 50 mg of the polymorphic Form I of a hydrochloride salt of the Compound of Formula (I) was treated with toluene (3.5 mL, 70 vols), producing a suspension at 50° C. This suspension was matured between 50° C. and room temperature (8 hours per cycle) for three days.

[6] = 114 mg in tetrahydrofuran (THF)
[7] = 117 mg in isopropyl acetate (IPAc)
[8] = 140 mg in ethyl acetate (EtOAc)
[9] = 149 mg in methyl ethyl ketone (MEK)
[10] = 150 mg in methyl t-butyl ether (MTBE)
[11] = 154 mg in 2-methyltetrahydrofuran (2-MeTHF)
[12] = 160 mg in dichloromethane (DCM)
[13] = 176 mg in methyl isobutyl ketone (MIBK)

- XRPD after 7 days [1, 6]: new
- XRPD after about 25 [1, 6]: Form IX
- XRPD after 7 days [1, 7]: Form I
- XRPD after about 25 [1, 7]: Form I
- XRPD after 7 days ([1]; 119 mg in water): Form I
- XRPD after about 25 ([1]; 119 mg in water): Form I
- XRPD after 7 days ([1]; 120 mg in acetonitrile (ACN)): Form I
- XRPD after about 25 ([1]; 120 mg in acetonitrile (ACN)): Form I
- XRPD after 7 days ([1]; 125 mg in acetone): new
- XRPD after about 25 ([1]; 125 mg in acetone): Form X
- XRPD after 7 days ([1]; 132 mg in 2-propanol): Form I
- XRPD after about 25 ([1]; 132 mg in 2-propanol): mixture
- XRPD after 7 days [1, 8]: Form I
- XRPD after about 25 [1, 8]: Form I
- XRPD after 7 days [1, 9]: new
- XRPD after about 25 [1, 9]: Form VII
- XRPD after 7 days [1, 10]: Form I
- XRPD after about 25 [1, 10]: Form I
- XRPD after 7 days [1, 11]: Form V
- XRPD after about 25 [1, 11]: Form V
- XRPD after 7 days ([1]; 155 mg in methanol): Form I
- XRPD after about 25 ([1]; 155 mg in methanol): Form I
- XRPD after 7 days ([1]; 157 mg in Ethanol): Form I
- XRPD after about 25 ([1]; 157 mg in Ethanol): Form I
- XRPD after 7 days [1, 12]: new
- XRPD after about 25 [1, 12]: Form VIII
- XRPD after 7 days ([1]; 163 mg in n-heptane): Form I
- XRPD after about 25 ([1]; 163 mg in n-heptane): Form I
- XRPD after 7 days [1, 13]: Form I
- XRPD after about 25 [1, 13]: Form VI
- XRPD after about 25 ([1]; 10 g in 1-butanol): Form XIII
- XRPD after about 25 ([1]; 10 g in 1-propanol): Form XII
- XRPD after about 25 ([1]; 10 g in 2-propanol): Form XI
- solubility at 21 days ([2]; Ethanol/water aw 0.2): 60 mg/mL
- solubility at 5 days ([2]; Ethanol/water aw 0.2): 26 mg/mL
- solubility at 21 days ([2]; Ethanol/water aw 0.3): 33 mg/mL
- solubility at 5 days ([2]; Ethanol/water aw 0.3): 47 mg/mL
- solubility at 21 days ([2]; Ethanol/water aw 0.4): 66 mg/mL
- solubility at 5 days ([2]; Ethanol/water aw 0.4): 57 mg/mL
- solubility at 21 days ([2]; Ethanol/water aw 0.5): 93 mg/mL
- solubility at 5 days ([2]; Ethanol/water aw 0.5): 72 mg/mL
- solubility at 21 days ([2]; Ethanol/water aw 0.6): 183 mg/mL
- solubility at 21 days ([2]; Ethanol/water aw 0.7): 223 mg/mL
- solubility at 21 days ([2]; Ethanol/water aw 0.8): 174 mg/mL
- solubility at 21 days ([2]; Ethanol/water aw 0.9): 44 mg/mL
- DVS: mass change as a function of RH [3]: minor mass increase
- XRPD after 5 days ([4]; Ethanol/water aw 0.2): Form I
- XRPD after 21 days ([4]; Ethanol/water aw 0.2): Form I
- XRPD after 5 days ([4]; Ethanol/water aw 0.3): Form I
- XRPD after 21 days ([4]; Ethanol/water aw 0.3): Form I
- XRPD after 5 days ([4]; Ethanol/water aw 0.4): Form I
- XRPD after 21 days ([4]; Ethanol/water aw 0.4): Form I
- XRPD after 5 days ([4]; Ethanol/water aw 0.5): Form I
- XRPD after 21 days ([4]; Ethanol/water aw 0.5): Form I
- XRPD after 5 days ([4]; Ethanol/water aw 0.6): Form I
- XRPD after 21 days ([4]; Ethanol/water aw 0.6): Form I
- XRPD after 5 days ([4]; Ethanol/water aw 0.7): Form I
- XRPD after 21 days ([4]; Ethanol/water aw 0.7): Form I
- XRPD after 5 days ([4]; Ethanol/water aw 0.8): Form I
- XRPD after 21 days ([4]; Ethanol/water aw 0.8): Form I
- changes in XRPD in the hydrate screen ([4]; all water activities except 0.9): no changes in XRPD
SMILES: CC[C@H](Nc1ncnc2[nH]cnc12)c1nc2cccc(F)c2c(=O)n1-c1ccccc1 [(S)-2-(1-(9H-purin-6-ylamino)propyl)-5-fluoro-3-phenylquinazolin-4(3H)-one]
- changes in XRPD in the hydrate screen ([4]; water activity 0.9): converted some of the hydrochloride salt to polymorphic Form I of the free form

- XRPD pattern after drying ([5]; drying in a vacuum oven at about 25° C. for 6 days): Pattern 9
SMILES: CC[C@H](Nc1ncnc2[nH]cnc12)c1nc2cccc(F)c2c(=O)n1-c1ccccc1 [Pattern 1, (S)-2-(1-(9H-purin-6-ylamino)propyl)-5-fluoro-3-phenylquinazolin-4(3H)-one]

- XRPD pattern after further heating ([5]; further heating at about 145° C. for about 16 hours): Pattern 9′
SMILES: CC[C@H](Nc1ncnc2[nH]cnc12)c1nc2cccc(F)c2c(=O)n1-c1ccccc1 [Pattern 9, (S)-2-(1-(9H-purin-6-ylamino)propyl)-5-fluoro-3-phenylquinazolin-4(3H)-one]

- XRPD upon drying ([5]; upon drying): mixture of Pattern 1 and Pattern 9′
SMILES: CC[C@H](Nc1ncnc2[nH]cnc12)c1nc2cccc(F)c2c(=O)n1-c1ccccc1 [Toluene solvate, (S)-2-(1-(9H-purin-6-ylamino)propyl)-5-fluoro-3-phenylquinazolin-4(3H)-one]
